Source: patent publication US4175081A, “5-Substituted thiadiazole ureas” (priority 1977, dated 1979)

What was measured:
[1] = system: Turnip (TP); assay: Post-emergence herbicide test; type: in vivo, Brassica sp.; conditions: Brassica rapa, post-emergence, 336 h, two weeks after treatment; for pest or weed control at 2241.7 g/ha: 2 lb/acre; for pest or weed control at 4483.4 g/ha: 4 lb/acre; for pest or weed control at 1120.85 g/ha: 1 lb/acre
Experimental: (§1) Turnip (TP)--Brassica sp.
(§2) All crop and weed species were planted individually in 3' plastic pots containing potting soil. Four seeds each of corn, cotton, and snapbeans were seeded to a depth equal to the diameter of the seed. All other species were surface seeded and sprinkled with screened soil in an amount sufficient to cover the seed. Immediately after planting, all pots were watered by sub-irrigation in greenhouse trays. Pots for the pre-emergence phase were seeded one day before treatment.
(§3) Planting dates for the post-emergence phase were varied so that all seedlings would reach the desired stage of development simultaneously. The proper stage of seedling development for treatment in the post-emergence phase is as follows:
Pigweed and turnips: 1 or 2 true leaves above visible cotyledons.
(§4) Spray hood constants required to deliver the above volume are as follows:
(§5) Formulations for spray applications were prepared in 50 ml volumes with the following three components: […]
(§6) Spray applications were made in a hood containing a removable belt and fixed spray nozzle. For passage through the spray hood, one pot of each specie (pre-emergence phase) was placed on the rear half of the flat. Treatments were removed to the greenhouse after spraying. Watering during the observation period was done only by sub-irrigation.
(§7) Two weeks after treatment, pre- and post-emergence injury or control was visually rated, and the results were as shown in the following tables. Pre-emergence data are provided in TABLE III and post-emergence data are provided in TABLE IV, for compounds having the formula illustrated in TABLE I. Correspondingly, pre-emergence and post-emergence data, respectively, are set forth in TABLES V AND VI, for compounds having the formula illustrated in TABLE II.

[2] = system: Corn (CN); assay: Post-emergence herbicide test; type: in vivo; conditions: Zea mays, 336 h, two weeks after treatment; for pest or weed control: 2 lb/acre; for pest or weed control at 4483.4 g/ha: 4 lb/acre; for pest or weed control at 1120.85 g/ha: 1 lb/acre
Experimental: as §2, §3
(§8) Compounds were tested at rates of application equivalent to 8 lbs. of actual compound per acre in a spray volume of 38 gallons per acre. Spray hood constants required to deliver the above volume are as follows:
(§9) Formulations for spray applications were prepared in 50 ml volumes with the following three components:
(§10) Formulations for the 4 lbs/acre rate were prepared by adjusting the amount of active ingredient accordingly.
as §6, §7

[3] = system: Barnyard grass (BG); assay: Post-emergence herbicide test; type: in vivo; conditions: Echinochloa crus-galli, 336 h, two weeks after treatment; for pest or weed control at 2241.7 g/ha: 2 lb/acre; for pest or weed control at 4483.4 g/ha: 4 lb/acre; for pest or weed control at 1120.85 g/ha: 1 lb/acre
Experimental: (§11) Barnyard grass (BG)--Echinochloa crus-galli
as §2, §3, §8, §9, §10, §6, §7

[4] = system: Turnip (TP); assay: Pre-emergence herbicide test; type: in vivo, Brassica sp.; conditions: Brassica rapa, pre-emergence, 336 h, two weeks after treatment
Experimental: as §1, §2, §4, §5, §6, §7

[5] = system: Crabgrass (CG); assay: Pre-emergence herbicide test; type: in vivo, Digitaria sanquinalis; conditions: Digitaria sanguinalis, pre-emergence, 336 h, two weeks after treatment
Experimental: (§12) Crabgrass (CG)--Digitaria sanquinalis
as §2, §4, §5, §6, §7

[6] = system: Johnson grass (JG); assay: Post-emergence herbicide test; type: in vivo, Sorgum helepense; conditions: Sorghum halepense, 336 h, two weeks after treatment; for pest or weed control: 2 lb/acre; for pest or weed control at 4483.4 g/ha: 4 lb/acre; for pest or weed control at 1120.85 g/ha: 1 lb/acre
Experimental: (§13) Johnson grass (JG)--Sorgum helepense
as §2, §3, §8, §9, §10, §6, §7

[7] = system: Bean (BN); assay: Post-emergence herbicide test; type: in vivo, Phaseolus vulgaris var. Black Valentine; conditions: Phaseolus vulgaris, post-emergence, 336 h, two weeks after treatment; for pest or weed control at 2241.7 g/ha: 2 lb/acre; for pest or weed control at 4483.4 g/ha: 4 lb/acre; for pest or weed control at 1120.85 g/ha: 1 lb/acre
Experimental: (§14) Bean (BN)--Phaseolus vulgaris var. Black Valentine
as §2, §3
Beans: primary leaves expanded, growing point at primary leaf nodes.
as §4, §9, §10, §6, §7

[8] = system: Crabgrass (CG); assay: Post-emergence herbicide test; type: in vivo, Digitaria sanquinalis; conditions: Digitaria sanguinalis, post-emergence, 336 h, two weeks after treatment; for pest or weed control: 2 lb/acre; for pest or weed control at 4483.4 g/ha: 4 lb/acre; for pest or weed control at 1120.85 g/ha: 1 lb/acre
Experimental: as §12, §2, §3, §4, §5, §6, §7

[9] = system: Johnson grass (JG); assay: Pre-emergence herbicide test; type: in vivo, Sorgum helepense; conditions: Sorghum halepense, 336 h, two weeks after treatment
Experimental: as §13, §2, §8, §9, §10, §6, §7

[10] = system: Bean (BN); assay: Pre-emergence herbicide test; type: in vivo, Phaseolus vulgaris var. Black Valentine; conditions: Phaseolus vulgaris, 336 h, two weeks after treatment
Experimental: as §14, §2, §8, §9, §10, §6, §7

[11] = system: Cotton (CT); assay: Post-emergence herbicide test; type: in vivo, Gossypium hirsutum var. DPL smooth leaf; conditions: Gossypium hirsutum, post-emergence, 336 h, two weeks after treatment; for pest or weed control at 2241.7 g/ha: 2 lb/acre; for pest or weed control at 4483.4 g/ha: 4 lb/acre; for pest or weed control at 1120.85 g/ha: 1 lb/acre
Experimental: (§15) Cotton (CT)--Gossypium hirsutum var. DPL smooth leaf
as §2, §3
Cotton: first true leaf 1' in length; expanded cotyledons.
as §4, §9, §10, §6, §7

[12] = system: Barnyard grass (BG); assay: Pre-emergence herbicide test; type: in vivo; conditions: Echinochloa crus-galli, 336 h, two weeks after treatment
Experimental: as §11, §2, §8, §9, §10, §6, §7

[13] = system: Corn (CN); assay: Pre-emergence herbicide test; type: in vivo; conditions: Zea mays, 336 h, 2 lb/acre, two weeks after treatment
Experimental: as §2, §8, §9, §10, §6, §7

[14] = system: Cotton (CT); assay: Pre-emergence herbicide test; type: in vivo, Gossypium hirsutum var. DPL smooth leaf; conditions: Gossypium hirsutum, 336 h, two weeks after treatment
Experimental: as §15, §2, §8, §9, §10, §6, §7

| Compound | pest or weed control at 2241.7 g/ha [1] | pest or weed control [2] | pest or weed control at 2241.7 g/ha [3] | pest or weed control [6] | pest or weed control at 2241.7 g/ha [7] | pest or weed control [8] | pest or weed control at 2241.7 g/ha [11] | pest or weed control at 4483.4 g/ha [1] | pest or weed control at 4483.4 g/ha [2] | pest or weed control at 4483.4 g/ha [3] | pest or weed control at 4483.4 g/ha [6] | pest or weed control at 4483.4 g/ha [7] | pest or weed control at 4483.4 g/ha [8] | pest or weed control at 4483.4 g/ha [11] | further results |
| --- | --- | --- | --- | --- | --- | --- | --- | --- | --- | --- | --- | --- | --- | --- | --- |
| C=CCSc1nnc(NC(=O)NC)s1 [Example 39, 1-Methyl-3-[5-Allythio-2-(1,3,4-Thiadiazolyl)] Urea] | 80% | 50% | 90% | 80% | 100% | 80% | 100% |  |  |  |  |  |  |  | pest or weed control at 2241.7 g/ha ([4]; 2 lb/acre): 70%; pest or weed control ([5]; 2 lb/acre): 60%; pest or weed control at 2241.7 g/ha ([9]; 2 lb/acre): 30%; pest or weed control at 2241.7 g/ha ([10]; 2 lb/acre): 40%; pest or weed control at 2241.7 g/ha ([12]; 2 lb/acre): 50%; pest or weed control at 2241.7 g/ha [13]: 10%; pest or weed control at 2241.7 g/ha ([14]; 2 lb/acre): 50% |
| CNC(=O)Nc1nnc(SC(C)C)s1 [Example 40, 1-Methyl-3-[5-Isopropylthio-2-(1,3,4-Thiadiazolyl)]Urea] |  |  |  |  |  |  |  | 100% | 40% | 50% | 70% | 100% | 90% | 100% | pest or weed control at 4483.4 g/ha ([4]; 4 lb/acre): 100%; pest or weed control at 4483.4 g/ha ([5]; 4 lb/acre): 50%; pest or weed control at 4483.4 g/ha ([9]; 4 lb/acre): 30%; pest or weed control at 4483.4 g/ha ([10]; 4 lb/acre): 10%; pest or weed control at 4483.4 g/ha ([12]; 4 lb/acre): 40%; pest or weed control at 4483.4 g/ha ([14]; 4 lb/acre): 30% |
| CNC(=O)Nc1nnc(SCC(C)C)s1 [Example 44] | 80% | 60% | 90% | 80% | 100% | 90% | 100% |  |  |  |  |  |  |  | pest or weed control at 1120.85 g/ha [1]: 40%; pest or weed control at 1120.85 g/ha [2]: 60%; pest or weed control at 1120.85 g/ha [3]: 80%; pest or weed control at 1120.85 g/ha [6]: 60%; pest or weed control at 1120.85 g/ha [7]: 80%; pest or weed control at 1120.85 g/ha [8]: 80%; pest or weed control at 1120.85 g/ha [11]: 100% |
| CCCCSc1nnc(NC(=O)NC)s1 [Example 45] | 70% | 60% | 80% | 90% | 100% | 90% | 100% |  |  |  |  |  |  |  | pest or weed control at 1120.85 g/ha [1]: 50%; pest or weed control at 1120.85 g/ha [2]: 70%; pest or weed control at 1120.85 g/ha [3]: 90%; pest or weed control at 1120.85 g/ha [6]: 60%; pest or weed control at 1120.85 g/ha [7]: 90%; pest or weed control at 1120.85 g/ha [8]: 90%; pest or weed control at 1120.85 g/ha [11]: 100% |
| CNC(=O)Nc1nnc(SCc2ccccc2)s1 [Example 46] |  |  |  |  |  |  |  | 100% | 30% | 70% | 70% | 90% | 70% | 100% |  |
| CCCCCCS(=O)(=O)c1nnc(NC(=O)NC)s1 [Example 58] |  |  |  |  |  |  |  | 80% | 20% | 20% | 30% | 70% | 50% | 50% |  |
| CCCCCSc1nnc(NC(=O)NC)s1 [Example 59] |  |  |  |  |  |  |  | 100% | 40% | 70% | 80% | 100% | 90% | 100% |  |
